Consider eight molecules from patent US20140066498A1, “TRITERPENOID DERIVATIVES, BENZENOID DERIVATIVES, AND PHARMACEUTICAL COMPOSITIONS CONTAINING THE SAME” (National Cheng Kung University, priority 2010, published 2014).

For one series, the system named is KB (human cancer cell). Put plainly: Cytotoxicity assay against KB cells in vitro. The format is cell-based. To be noted: NA@20 given for inactive.
Series [1] concerns KB-VIN (multidrug-resistant strain). Put plainly: Cytotoxicity assay against KB-VIN cells in vitro. In kind it is cell-based, human.
The target in series [2] is NADPH oxidase (NOX) (Mus musculus, UniProt Q61093). In kind it is biochemical, murine. To be noted: ROS production triggered with NADPH (200 μM), 1-50 μM test drug, BV2 cell lysate; mean ± S.E.M., 3-6 experiments; read-out: IC50 (μM) in NOX activity from BV2 cell lysate.
Series [3] has as its target T1, nitric oxide synthase (NOS) (Mus musculus, UniProt P29477).
T1 sequence (P29477 1-1144): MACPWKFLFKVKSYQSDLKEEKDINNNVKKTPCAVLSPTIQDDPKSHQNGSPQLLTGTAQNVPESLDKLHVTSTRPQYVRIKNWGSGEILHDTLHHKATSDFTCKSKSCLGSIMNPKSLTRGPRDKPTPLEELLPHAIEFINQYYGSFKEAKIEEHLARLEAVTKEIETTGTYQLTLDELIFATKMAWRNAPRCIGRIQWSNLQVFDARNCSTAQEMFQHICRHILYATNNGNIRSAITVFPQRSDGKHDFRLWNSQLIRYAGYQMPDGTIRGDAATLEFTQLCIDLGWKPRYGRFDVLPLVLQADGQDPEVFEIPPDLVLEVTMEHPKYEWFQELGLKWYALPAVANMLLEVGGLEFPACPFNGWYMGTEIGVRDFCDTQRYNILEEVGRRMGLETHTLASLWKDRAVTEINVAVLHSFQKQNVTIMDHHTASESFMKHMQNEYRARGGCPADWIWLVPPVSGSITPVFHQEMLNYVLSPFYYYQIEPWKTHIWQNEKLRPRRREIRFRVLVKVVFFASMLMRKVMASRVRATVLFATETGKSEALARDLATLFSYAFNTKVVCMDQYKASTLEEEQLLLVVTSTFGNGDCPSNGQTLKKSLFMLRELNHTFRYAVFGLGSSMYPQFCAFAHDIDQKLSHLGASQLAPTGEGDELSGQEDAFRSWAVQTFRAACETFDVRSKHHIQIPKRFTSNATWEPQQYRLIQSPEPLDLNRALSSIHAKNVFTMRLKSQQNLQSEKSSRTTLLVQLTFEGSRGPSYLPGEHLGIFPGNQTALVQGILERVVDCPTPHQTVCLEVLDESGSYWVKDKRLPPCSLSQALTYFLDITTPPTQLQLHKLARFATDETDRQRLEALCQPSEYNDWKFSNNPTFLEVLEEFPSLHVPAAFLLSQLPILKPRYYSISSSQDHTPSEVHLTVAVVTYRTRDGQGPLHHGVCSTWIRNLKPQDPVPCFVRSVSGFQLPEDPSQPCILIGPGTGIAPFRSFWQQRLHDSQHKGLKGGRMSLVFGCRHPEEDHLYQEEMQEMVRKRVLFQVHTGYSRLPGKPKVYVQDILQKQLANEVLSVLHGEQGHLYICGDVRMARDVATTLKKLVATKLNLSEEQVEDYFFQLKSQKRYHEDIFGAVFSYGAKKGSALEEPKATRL
Put plainly: NOS activity: LPS-induced NO production in murine microglial cells (BV2).
Description: Microglial cell culture and measurements of mitric oxide (NO). The murine microglial cell line (BV2) was cultured, and the production of NO was measured by the methods as previously described (Wang, Y. H.; Wang, W. Y.; Chang, C. C.; Liou, K. T.; Sung, Y. J.; Liao, J. F.; Chen, C. F.; Chang, S.; Hou, Y. C.; Chou, Y. C.; Shen, Y. C. J. Biomed. Sci. 2006, 13, 127-141).

For series [4], the target named is NADPH oxidase (NOX) (Homo sapiens, UniProt P04839). In kind it is cell-based. To be noted: ROS production triggered with fMLP (2 μM), 1-50 μM test drug, peripheral human neutrophils; mean ± S.E.M.; read-out: IC50 (μM) in NOX fMLP-induced NOX activation in PMN.
Series [5] has as its system Daoy (human medulloblastoma). Put plainly: MTT cytotoxicity assay, Daoy. In kind it is cell-based. To be noted: Daoy cell line. On the procedure:
(§1) Compounds II-7-II-9, II-13, II-14, II-20, II-21, II-25-II-33, and II-36 were assayed for cytotoxic activity against Doay (human medulloblastoma), Hep2 (human laryngeal carcinoma), MCF-7 (human breast adenocarcinoma), and Hela (human cervical epitheloid carcinoma) cell lines, using a MTT assay method.
Background: Tetrazolium dyes change colour on reduction, which living cells bring about.

Series [6] has as its system Hep2 (human laryngeal carcinoma). Put plainly: MTT cytotoxicity assay, Hep2. In kind it is cell-based. To be noted: Hep2 cell line. How it is done:
as §1

The subject of series [7] is MCF-7 (human breast adenocarcinoma). Put plainly: MTT cytotoxicity assay, MCF-7. To be noted: MCF-7 cell line. The format is cell-based. How it is done:
as §1

Series [8] concerns Hela (human cervical epitheloid carcinoma). Put plainly: MTT cytotoxicity assay, Hela. The following applies: Hela cell line. The format is cell-based. On the procedure: as §1
The test system of series [9] is P-388 murine leukemia cells. The following applies: in vitro, previous studies; cited from earlier work.
Setting [10] is: read-out: IC50 (μM) in NOS, LPS-induced NO production in BV2 cells, 1-50 μM test drug, mean ± S.E.M.

≈ marks a conversion by molar mass, not a printed value. Read-outs that look alike come from different tables or passages of the source.

By EC50 is commonly meant the concentration needed to bring the measured effect to its halfway point. Higher therefore signals lower potency in that assay. For orientation: IC50 means the concentration needed to halve the response being measured. As for `C=C(CC[C@@H](C)[C@H]1CC[C@H]2C3=C(C(=O)[C@H](O)[C@]12C)[C@@]1(C)CC[C@@H](O)[C@@H](C)[C@@H]1CC3=O)C(C)C(=O)O` (stereo partly drawn) [Compound I-13, zhankuic acid C], the results for the EC50 (with KB (human cancer cell); in series [1]) were 15.5 µM and 6.4 µM, respectively. Also, the 50% inhibitory concentration (IC50) came out at 40.3 ± 3.5 µM on NADPH oxidase (NOX) [2] and 16.2 ± 0.9 µM in series [3] (setting [10]).
With `C=C(C)C#Cc1c(OC)cc(OC)c(OC)c1C` [II-9, antrocamphin A], the IC50 at NADPH oxidase (NOX) [2] came to 50.1 ± 3.3 µM; on NADPH oxidase (NOX) [4], 15.1 ± 4.1 µM; in series [3] (setting [10]), 7.2 ± 1 µM. Moreover, in [5], the “ED50 (μg/mL) Daoy” value came out at 5.9 µg/mL (≈ 24 µM). Besides, the “ED50 (μg/mL) Hep2” value in [6] worked out at 10.5 µg/mL (≈ 42.6 µM). Moreover, the “ED50 (μg/mL) MCF-7” value in series [7] was 3.4 µg/mL (≈ 13.8 µM). The “ED50 (μg/mL) Hela” value in series [8] amounted to 6.9 µg/mL (≈ 28 µM).
Take `C=C(CC[C@@H](C)[C@H]1CC[C@H]2C3=C(C(=O)C[C@]12C)[C@@]1(C)CCC(=O)[C@@H](C)[C@@H]1CC3=O)C(C)C(=O)O` (stereo partly drawn) [zhankuic acid A]: the “cytotoxicity against P-388 murine leukemia cells” value in series [9] is “significant cytotoxicity”.
Turning to methyl antcinate H [Compound I-18], the “EC50 (μM) KB” value in the series on KB (human cancer cell) is “NA@20”. For the same molecule, the “EC50 (μM) KB-VIN” value in [1] is given as “NA@20”. Besides, the IC50 on NADPH oxidase (NOX) [2] worked out at 16 ± 8.1 µM; on NADPH oxidase (NOX) [4] it was 18.1 ± 5.9 µM; in series [3] (setting [10]), 2.5 µM.
Regarding `c1ccc2c(c1)[I+]c1ccccc1-2` [DPI, Diphenyleneiodonium, reference compound], the IC50 on NADPH oxidase (NOX) [2] amounted to 0.4 µM.
As to `C=C(CC[C@@H](C)[C@H]1CC[C@H]2C3=C(C(=O)[C@H](O)[C@]12C)[C@@]1(C)CC[C@@H](O)[C@@H](C)[C@@H]1CC3=O)C(C)C(=O)O` (stereo partly drawn) [zhankuic acid C], in series [9], the “cytotoxicity against P-388 murine leukemia cells” value is on record as “significant cytotoxicity”.
Turning to `C=C(CC[C@@H](C)[C@H]1CC[C@H]2C3=C(C(=O)C[C@]12C)[C@@]1(C)CCC(=O)[C@@H](C)[C@@H]1CC3)C(C)C(=O)O` (stereo partly drawn) [Compound I-15, antcin A], the results for the EC50 (in the series with KB (human cancer cell); in [1]) were 4.9 µM and 10 µM, respectively. Besides, the IC50 on NADPH oxidase (NOX) [2] was 45.9 ± 7.9 µM; at NADPH oxidase (NOX) [4] it was 29.2 ± 6.7 µM; in series [3] (setting [10]), 4.1 ± 0.5 µM. The “ED50 (μg/mL) Daoy” value in series [5] came out at 13.2 µg/mL (≈ 29 µM). The “ED50 (μg/mL) Hep2” value in [6] was “— (ED50 > 20 μg/mL)”. The “ED50 (μg/mL) MCF-7” value in series [7] was 13.3 µg/mL (≈ 29.3 µM). Also, in series [8], the “ED50 (μg/mL) Hela” value was “— (ED50 > 20 μg/mL)”.
The term melting point denotes the temperature, or range, at which the solid turns liquid. The molecule `C=C(CC[C@@H](C)[C@H]1CC[C@@H]2C3=C(C(=O)C[C@@]21C)[C@@]1(C)CCC(=O)[C@@H](C)C1CC3)C(C)C(=O)OC` (stereo partly drawn) [Compound I-10, methyl-3,11-dioxo-4α-methyl-14β-ergosta-8,24(28)-dien-26-oate] returned a melting point of 100 to 102 °C. Also, the “EC50 (μM) KB” value with KB (human cancer cell) was “NA@20”. In [1], the “EC50 (μM) KB-VIN” value is “NA@20”. Also, the “ED50 (μg/mL) Daoy” value in [5] was “—^a (ED50 > 20 μg/mL)”. The “ED50 (μg/mL) Hep2” value in series [6] is reported as “— (ED50 > 20 μg/mL)”. Further, the “ED50 (μg/mL) MCF-7” value in series [7] came out at 8.7 µg/mL (≈ 18.6 µM). In [8], the “ED50 (μg/mL) Hela” value was found to be 11.3 µg/mL (≈ 24.1 µM). The molecule further came in with an IC50 in [3] of 1.6 µM.
